Measured values published in ChEMBL document CHEMBL6134821, “Design, synthesis, and biological evaluation of novel BTK-targeting proteolysis targeting chimeras (PROTACs) with enhanced pharmacokinetic properties” (Eur J Med Chem, 2025).
Calls of active or inactive are those of the source. No cut-off for these calls is given here.

Columns and labels:
[1] = target: T1, Protein cereblon/Tyrosine-protein kinase BTK (Homo sapiens, UniProt Q06187+Q96SW2); assay: PROTAC activity at CRBN/BTK in human TMD8 cells assessed as BTK degradation measured after 24 hrs by Western blot analysis; type: cell-based; settings: for Activity: dose 0.1-1000 nM
[2] = target: T1, Protein cereblon/Tyrosine-protein kinase BTK; assay: PROTAC activity at CRBN/BTK in human JeKo-1 cells assessed as BTK degradation at 10 nM incubated for 24 hrs in presence of bortezomib by Western blot analysis; type: cell-based
Target sequence in this assay (Q06187 2-659 limits assumed): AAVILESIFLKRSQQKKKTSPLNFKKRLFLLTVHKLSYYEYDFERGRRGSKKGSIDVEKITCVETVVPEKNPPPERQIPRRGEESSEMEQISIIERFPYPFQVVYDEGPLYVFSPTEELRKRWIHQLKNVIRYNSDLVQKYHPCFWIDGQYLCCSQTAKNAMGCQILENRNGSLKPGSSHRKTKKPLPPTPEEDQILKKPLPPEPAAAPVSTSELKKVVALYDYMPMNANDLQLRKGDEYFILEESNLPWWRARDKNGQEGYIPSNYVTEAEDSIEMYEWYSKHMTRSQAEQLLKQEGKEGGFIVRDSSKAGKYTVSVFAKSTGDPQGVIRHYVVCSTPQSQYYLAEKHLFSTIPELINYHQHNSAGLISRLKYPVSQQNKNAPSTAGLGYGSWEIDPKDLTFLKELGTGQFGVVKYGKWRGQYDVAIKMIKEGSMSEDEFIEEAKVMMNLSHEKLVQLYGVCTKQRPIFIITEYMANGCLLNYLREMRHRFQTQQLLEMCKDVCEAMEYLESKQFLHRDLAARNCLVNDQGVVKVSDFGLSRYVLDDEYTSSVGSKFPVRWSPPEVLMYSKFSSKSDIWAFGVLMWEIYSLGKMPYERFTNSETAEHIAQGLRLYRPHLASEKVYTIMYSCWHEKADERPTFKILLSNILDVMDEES
Target sequence in this assay (Q96SW2 whole entry partner): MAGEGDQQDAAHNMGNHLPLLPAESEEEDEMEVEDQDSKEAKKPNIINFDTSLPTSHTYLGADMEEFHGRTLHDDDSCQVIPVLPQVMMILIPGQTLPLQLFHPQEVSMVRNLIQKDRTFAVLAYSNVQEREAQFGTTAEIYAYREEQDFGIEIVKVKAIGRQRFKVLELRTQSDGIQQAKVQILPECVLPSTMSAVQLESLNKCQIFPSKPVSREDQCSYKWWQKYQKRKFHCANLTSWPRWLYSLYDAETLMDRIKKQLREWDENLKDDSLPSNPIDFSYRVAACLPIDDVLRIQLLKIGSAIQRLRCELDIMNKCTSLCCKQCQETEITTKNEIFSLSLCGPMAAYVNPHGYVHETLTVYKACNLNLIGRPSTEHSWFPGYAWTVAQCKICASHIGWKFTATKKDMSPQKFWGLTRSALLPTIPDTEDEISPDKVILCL

[3] = target: T1, Protein cereblon/Tyrosine-protein kinase BTK; assay: PROTAC activity at CRBN/BTK in human JeKo-1 cells assessed as BTK degradation at 100 nM by Western blot analysis; type: cell-based; settings: time 1-24 hrs
Target sequence in this assay (Q06187 2-659 limits assumed): as the sequence (Q06187 2-659 limits assumed) above
Target sequence in this assay (Q96SW2 whole entry partner): as the sequence (Q96SW2 whole entry partner) above

JeKo-1 [4] = assay: Effect on IKZF1 level in human JeKo-1 cells at 0.1 to 1000 nM incubated for 8 hrs by Western blot analysis; type: functional, cell-based; settings: dose 0.1-1000 nM
[5] = target: T1, Protein cereblon/Tyrosine-protein kinase BTK; assay: PROTAC activity at CRBN/BTK in human JeKo-1 cells assessed as BTK degradation at 10 nM incubated for 24 hrs by Western blot analysis relative to control; type: cell-based
Target sequence in this assay (Q06187 2-659 limits assumed): as the sequence (Q06187 2-659 limits assumed) above
Target sequence in this assay (Q96SW2 whole entry partner): as the sequence (Q96SW2 whole entry partner) above

[6] = target: T1, Protein cereblon/Tyrosine-protein kinase BTK; assay: PROTAC activity at CRBN/BTK in human JeKo-1 cells assessed as hook effect up to 1 uM incubated for 24 hrs by Western blot analysis; type: cell-based
Target sequence in this assay (Q06187 2-659 limits assumed): as the sequence (Q06187 2-659 limits assumed) above
Target sequence in this assay (Q96SW2 whole entry partner): as the sequence (Q96SW2 whole entry partner) above

[7] = target: T1, Protein cereblon/Tyrosine-protein kinase BTK; assay: PROTAC activity at CRBN/BTK in human JeKo-1 cells assessed as BTK degradation at 30 nM incubated for 24 hrs by Western blot analysis relative to control; type: cell-based
Target sequence in this assay (Q06187 2-659 limits assumed): as the sequence (Q06187 2-659 limits assumed) above
Target sequence in this assay (Q96SW2 whole entry partner): as the sequence (Q96SW2 whole entry partner) above

[8] = system: Protein cereblon/Tyrosine-protein kinase BTK (Homo sapiens), Q06187+Q96SW2 [C481S]; assay: (§1) PROTAC activity at CRBN/BTK C481S mutant (unknown origin) expressed in human TMD8 cells assessed as BTK degradation measured after 24 hrs by Western blot analysis; type: cell-based; settings: dose 0.1-1000 nM
[9] = target: Protein cereblon/Tyrosine-protein kinase BTK (Homo sapiens, UniProt Q06187+Q96SW2, C481S); assay: as §1; type: cell-based
[10] = Microsomal stability in human liver microsomes assessed as intrinsic clearance in liver measured up to 60 mins in presence of NADPH by LC-MS/MS analysis; type: ADME, Microsome; settings: read-out: CLH
JeKo-1 [11] = assay: Effect on GSPT1 level in human JeKo-1 cells at 0.1 to 1000 nM incubated for 8 hrs by Western blot analysis; type: functional, cell-based; settings: dose 0.1-1000 nM
[12] = target: T1, Protein cereblon/Tyrosine-protein kinase BTK; assay: PROTAC activity at CRBN/BTK in human JeKo-1 cells assessed as BTK degradation at 100 nM incubated for 24 hrs by Western blot analysis relative to control; type: cell-based
Target sequence in this assay (Q06187 2-659 limits assumed): as the sequence (Q06187 2-659 limits assumed) above
Target sequence in this assay (Q96SW2 whole entry partner): as the sequence (Q96SW2 whole entry partner) above

[13] = Microsomal stability in human liver microsomes assessed as compound remaining measured up to 60 mins in presence of NADPH by LC-MS/MS analysis; type: ADME, Microsome; settings: read-out: Stability
[14] = target: T1, Protein cereblon/Tyrosine-protein kinase BTK; assay: PROTAC activity at CRBN/BTK in human JeKo-1 cells assessed as BTK degradation incubated for 24 hrs by Western blot analysis; type: cell-based; settings: for Activity: dose 0.01-1000 nM
[15] = Microsomal stability in human liver microsomes assessed as compound remaining measured up to 60 mins by LC-MS/MS analysis; type: ADME, Microsome; settings: read-out: Stability
JeKo-1 [16] = assay: Effect on IKZF3 level in human JeKo-1 cells at 0.1 to 1000 nM incubated for 8 hrs by Western blot analysis; type: functional, cell-based; settings: dose 0.1-1000 nM
[17] = target: T1, Protein cereblon/Tyrosine-protein kinase BTK; assay: PROTAC activity at CRBN/BTK in human JeKo-1 cells assessed as BTK degradation at 100 nM measured after 4 hrs by Western blot analysis relative to control; type: cell-based
[18] = Cytotoxicity against human TMD8 cells harboring BTK C481S mutant assessed as inhibition of cell viability incubated for 5 days by CCK8 assay; type: functional, cell-based; settings: TMD8, 120 h
[19] = target: T1, Protein cereblon/Tyrosine-protein kinase BTK; assay: PROTAC activity at CRBN/BTK in human JeKo-1 cells assessed as BTK degradation at 10 nM incubated for 24 hrs in presence of MLN-4924 by Western blot analysis; type: cell-based
[20] = Microsomal stability in human liver microsomes assessed as intrinsic clearance in microsomes measured up to 60 mins in presence of NADPH by LC-MS/MS analysis; type: ADME, Microsome; settings: read-out: CLH
[21] = target: T1, Protein cereblon/Tyrosine-protein kinase BTK; assay: PROTAC activity at CRBN/BTK in human JeKo-1 cells assessed as BTK degradation incubated for 8 hrs by Western blot analysis; type: cell-based; settings: dose 0.1-1000 nM
[22] = Microsomal stability in human liver microsomes assessed as half life measured up to 60 mins in presence of NADPH by LC-MS/MS analysis; type: ADME, Microsome
[23] = Cytotoxicity against human TMD8 cells harboring wild-type BTK assessed as inhibition of cell viability incubated for 5 days by CCK8 assay; type: functional, cell-based; settings: TMD8, 120 h
[24] = Toxicity in mouse at 2 mg/kg, iv measured for 0.083 to 24 hrs by LC-MS/MS analysis; type: organism-based; settings: in vivo, time 0.083-24 hrs
[25] = AUC (0 to t) in mouse at 2 mg/kg, iv measured for 0.083 to 24 hrs by LC-MS/MS analysis; type: ADME, organism-based; settings: in vivo, time 0.083-24 hrs
JeKo-1 [26] = assay: Downregulation of BLK level in human JeKo-1 cells at 100 nM incubated for 4 hrs by Label-free MS proteomics analysis; type: functional, cell-based
[27] = Toxicity in mouse at 30 mg/kg, ip measured for 0.083 to 24 hrs by LC-MS/MS analysis; type: organism-based; settings: in vivo, time 0.083-24 hrs
[28] = Cmax in mouse at 30 mg/kg, ip measured after 0.083 hrs by LC-MS/MS analysis; type: ADME, organism-based; settings: in vivo
[29] = target: T1, Protein cereblon/Tyrosine-protein kinase BTK; assay: PROTAC activity at CRBN/BTK in human JeKo-1 cells assessed as BTK degradation at 100 nM incubated for 4 hrs by Label-free MS proteomics analysis; type: cell-based
JeKo-1 [30] = assay: Downregulation of CSK level in human JeKo-1 cells at 100 nM incubated for 4 hrs by Label-free MS proteomics analysis; type: functional, cell-based
[31] = Drug concentration in plasma of mouse at 30 mg/kg, ip measured after 24 hrs by LC-MS/MS analysis; type: ADME, organism-based

Protein cereblon/Tyrosine-protein kinase BTK (Homo sapiens, UniProt Q06187+Q96SW2, C481S), sequence (Q06187 whole entry, looked up, stated change not applied): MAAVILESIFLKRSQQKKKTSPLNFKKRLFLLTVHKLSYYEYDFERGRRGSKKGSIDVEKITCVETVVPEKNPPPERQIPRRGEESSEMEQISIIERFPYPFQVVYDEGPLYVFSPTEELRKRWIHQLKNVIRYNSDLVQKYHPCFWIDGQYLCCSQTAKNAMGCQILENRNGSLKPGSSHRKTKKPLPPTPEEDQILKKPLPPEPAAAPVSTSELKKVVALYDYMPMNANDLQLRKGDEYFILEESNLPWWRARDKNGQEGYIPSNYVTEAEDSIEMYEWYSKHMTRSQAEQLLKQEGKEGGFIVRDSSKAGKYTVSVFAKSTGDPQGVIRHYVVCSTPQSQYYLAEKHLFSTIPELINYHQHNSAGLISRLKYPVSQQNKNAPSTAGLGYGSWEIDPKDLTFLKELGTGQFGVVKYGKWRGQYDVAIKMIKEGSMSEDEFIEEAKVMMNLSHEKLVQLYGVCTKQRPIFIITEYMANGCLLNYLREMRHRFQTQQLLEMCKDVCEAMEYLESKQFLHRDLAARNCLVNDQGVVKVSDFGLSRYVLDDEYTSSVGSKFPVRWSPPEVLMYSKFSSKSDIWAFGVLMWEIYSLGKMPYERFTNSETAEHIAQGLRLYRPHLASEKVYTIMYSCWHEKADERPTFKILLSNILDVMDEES
Protein cereblon/Tyrosine-protein kinase BTK (Homo sapiens, UniProt Q06187+Q96SW2, C481S), sequence (Q96SW2 whole entry, looked up, stated change not applied): as the sequence (Q96SW2 whole entry partner) above

Row | SMILES | DC50 [1] | Activity [1] | Activity [2] | Activity [3] | Activity (JeKo-1 [4]) | Activity [5] | Activity [6] | Activity [7] | Activity [8] | DC50 [9] | CLint scaled [10] | Activity (JeKo-1 [11]) | Activity [12] | remaining at 1 h [13] | DC50 [14] | Activity [14] | remaining at 1 h [15] | Activity (JeKo-1 [16]) | Activity [17] | IC50 [18] | also measured
1 | O=C1CCC(c2ccc(N3CCC(CCN4CCC(CC(=O)N[C@H]5CC[C@H](Nc6ncnc7[nH]cc(C(=O)c8ccc(Oc9ccccc9)cc8)c67)C5)CC4)CC3)cc2)C(=O)N1 (stereo partly drawn) | 3.4 nM | Dose-dependent-effect | inactive | Time-dependent-effect; Compound Exhibited Significant Reduction At 1 Hr | inactive | 78% | inactive | 81% | Dose-dependent-effect | 5.6 nM | < 8.6 mL/min/kg | inactive | 85% | 92.2% | 1.7 nM | Dose-dependent-effect | 99.8% | inactive | 100% | 26.5 nM | Activity [19]: inactive; microsomal CLint [20]: < 9.6 µL/min/mg; Activity [21]: Dose-dependent-effect; half-life [22]: > 2.42 h; IC50 [23]: 24.6 nM
2 | O=C1CCC(c2ccc(N3CCC(CCN4CCC(CC(=O)N[C@H]5CC[C@H](Nc6ncnc7[nH]cc(C(=O)c8ccc(Oc9ccccc9)cc8)c67)C5)CC4)CC3)nc2)C(=O)N1 (stereo partly drawn) | 2.8 nM | Dose-dependent-effect | inactive | Time-dependent-effect; Compound Exhibited Significant Reduction At 1 Hr | inactive | 89% | inactive | 94% | Dose-dependent-effect | 4.3 nM | < 8.6 mL/min/kg | inactive | 91% | 106% | 2.9 nM | Dose-dependent-effect | 79.3% | inactive | 100% | 18.2 nM | Activity [24]: Non-toxic; AUC(0-t) [25]: 1730 ng·h/mL; Activity (JeKo-1 [26]): Active; Activity [27]: Non-toxic; Cmax [28]: 3.67 µM; Activity [29]: Active; Activity (JeKo-1 [30]): Active; concentration at 24 h [31]: > 0.1 µM; Activity [19]: inactive; microsomal CLint [20]: < 9.6 µL/min/mg; Activity [21]: Dose-dependent-effect; half-life [22]: > 2.42 h; IC50 [23]: 9.9 nM
